Target: T1, Tyrosine-protein kinase JAK3 (Homo sapiens, UniProt P52333)
T1 sequence (P52333 whole entry): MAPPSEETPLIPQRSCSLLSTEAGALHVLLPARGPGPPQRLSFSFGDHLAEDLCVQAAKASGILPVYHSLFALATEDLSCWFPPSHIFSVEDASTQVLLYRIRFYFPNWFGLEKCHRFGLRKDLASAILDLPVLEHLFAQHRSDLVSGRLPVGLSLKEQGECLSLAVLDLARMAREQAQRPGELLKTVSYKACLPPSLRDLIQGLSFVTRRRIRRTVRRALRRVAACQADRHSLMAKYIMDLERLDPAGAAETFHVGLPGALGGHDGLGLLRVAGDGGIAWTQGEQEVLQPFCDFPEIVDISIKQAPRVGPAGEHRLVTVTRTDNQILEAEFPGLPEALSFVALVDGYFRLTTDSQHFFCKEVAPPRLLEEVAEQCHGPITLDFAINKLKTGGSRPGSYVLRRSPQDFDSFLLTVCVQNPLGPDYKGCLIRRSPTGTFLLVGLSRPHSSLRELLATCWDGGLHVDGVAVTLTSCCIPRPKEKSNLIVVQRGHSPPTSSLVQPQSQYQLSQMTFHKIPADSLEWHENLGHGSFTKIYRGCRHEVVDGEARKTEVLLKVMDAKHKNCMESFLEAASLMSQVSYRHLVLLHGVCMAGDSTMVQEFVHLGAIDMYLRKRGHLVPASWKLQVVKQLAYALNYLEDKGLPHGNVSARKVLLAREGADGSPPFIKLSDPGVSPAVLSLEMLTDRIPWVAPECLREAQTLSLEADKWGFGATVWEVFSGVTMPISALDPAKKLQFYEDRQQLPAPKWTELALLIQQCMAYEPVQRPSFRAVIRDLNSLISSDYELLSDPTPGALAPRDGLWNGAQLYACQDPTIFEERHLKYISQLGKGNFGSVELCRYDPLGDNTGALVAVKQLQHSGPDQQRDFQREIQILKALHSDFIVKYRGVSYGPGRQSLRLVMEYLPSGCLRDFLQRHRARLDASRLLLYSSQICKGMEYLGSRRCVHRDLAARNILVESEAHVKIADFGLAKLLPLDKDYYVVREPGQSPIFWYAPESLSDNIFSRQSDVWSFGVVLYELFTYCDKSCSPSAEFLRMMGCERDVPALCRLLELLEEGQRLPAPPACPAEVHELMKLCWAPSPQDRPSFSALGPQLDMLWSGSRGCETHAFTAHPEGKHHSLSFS
Experiment: Inhibition of JAK3 (unknown origin)

- IC50: > 30 µM
SMILES: COc1nn(C)cc1Nc1nccc(-c2c[nH]c3c(NC(=O)[C@@H](C)N4CCN(C)CC4)cccc23)n1 [(2R)-N-(3-{2-[(3-methoxy-1-methyl-1H-pyrazol-4-yl)amino]pyrimidin-4-yl}-1H-indol-7-yl)-2-(4-methylpiperazin-1-yl)propanamide]

Source: BindingDB's records for doi:10.1021/acs.jmedchem.9b01392 (AstraZeneca, 2020)
